Results: patent US20060194819A1, “Activation specific inhibitors of nf-kb and method of treating inflammatory processes in cardio-vascular diseases” (PROCORDE GMBH, priority 2003, published 2006)

Assays:
IKK-complex = biological target: T1, IKK-complex (Homo sapiens, UniProt O14920+O15111+Q9Y6K9); assay: In vitro/cell free kinase assay: IKK-complex immunoprecipitated from TNF alpha stimulated HeLa cells, drugs added afterwards, alpha screen; assay type: biochemical
T1 construct: IKK-complex was immunoprecipitated with anti-NEMO-antibody; endogenous in cells; host or cells: HeLa
Experimental: In vitro/cell free kinase assay protocol: HeLa cells were maintained in Dulbecco's modified Eagle's medium (Invitrogen) supplemented with 10% fetal bovine serum, 2 mM L-glutamine, penicillin (50 units/ml) and streptomycin (50 μg/ml). 24 h before treatment with TNF alpha HeLa cells were plated at a density of 1×10^7 per well in 175-mm cell culture dishes to 90% confluences.
The cells were stimulated with 20 ng/ml TNF alpha (Roche) without drugs. After 7 min the cells were washed twice with ice cold PBS followed by scraping and transferring into a 1.5 ml micro centrifuge tube. […] 6.6 μl of detection-buffer (20 mM Hepes pH 7.5, 100 mM NaCl, 1% Tween, 0.1 mM BSA, 50 μg/ml Protein A-Acceptor beads, 250 μg/ml Streptavidin-Donor beads (both Perkin-Elmer), 4 nM anti-phospho-IKBα-antibody (Santa Cruz Biotechnology) was dispensed to each well. After incubation for 1.5 h the plate was measured by alpha screen reader (Perkin Elmer).

IKKα/β binding to NEMO = biological target: T2, IKKα/β binding to NEMO (Homo sapiens, UniProt O14920+O15111+Q9Y6K9); assay: Degradation of the immunoprecipitated IKK-complex after drug treatment in vitro, Western blot; assay type: biochemical; details: precipitated IKK-complex incubated 1 h with compound
T2 construct: endogenous in cells; host or cells: HeLa (immunoprecipitate with anti-NEMO antibody on Protein A-Sepharose)
Experimental: After immuno-precipitation with anti-NEMO antibody (Santa Cruz) as described earlier, the precipitated and washed IKK-complex was incubated with different concentrations of IKK inhibitors in 20 mM HEPES, pH 8.0, 10 mM MgCl2, 100 μM Na3VO4, 20 mM-glycerophosphate, 50 mM NaCl, 2 mM dithiothreitol, 0.5 μM phenylmethylsulfonyl fluoride, antipain, aprotinin, leupeptin 0.75 μg/ml each (Sigma). After 1 h treatment the probe was centrifuged at 16000 g for 1 min the supernatant was removed totally and the protein A pellet was resuspended in 1×Laemmli-buffer buffer (2% SDS, 2% 2-Mercaptoethanol, 0.01% Bromophenol blue, 8% Glycerine), heated by 60° C. for 10 min and loaded to a 4-20% polyacrylamid gels (BioRad). After electrophoresis the proteins were transferred to a nitrocellulose membrane using the wet blotting technique. First the membrane was blocked with Roti-Block (Roth) and afterwards incubated with monoclonal antibodies against IKKα (Santa Cruz Biotechnology, used at 1:200 dilution). This incubation was followed by the appropriate horseradish peroxidase-conjugated secondary antibody (Dianova) at 1:10000 dilution. Antibody binding was visualized on x-ray film using the Western blot Chemiluminescent Reagent Detection Kit (Santa Cruz). The x-ray film was scanned and the results were analysed by densitometry by the software AIDA.

[1] = tested on: systemic TNF alpha release; assay: LPS induced systemic inflammation in rats, serum TNF alpha by ELISA; assay type: in vivo; details: compound 1 μg/g IV pre-treatment, LPS 0.33 μg/g IV
Experimental: Systemic inflammatory response in rats was induced by lipopolysaccharide (LPS) shock (IV administration of LPS 0.33 μg/g). Inflammatory and inhibition of inflammation by IV administration of compound 56 (1 μg/g) to rats was determined by TNF alphaquantification in […] serum. TNF alpha was detected with an ELISA kit (Pierce) according to the manufacturer's instructions.

T1 sequence (O14920 whole entry): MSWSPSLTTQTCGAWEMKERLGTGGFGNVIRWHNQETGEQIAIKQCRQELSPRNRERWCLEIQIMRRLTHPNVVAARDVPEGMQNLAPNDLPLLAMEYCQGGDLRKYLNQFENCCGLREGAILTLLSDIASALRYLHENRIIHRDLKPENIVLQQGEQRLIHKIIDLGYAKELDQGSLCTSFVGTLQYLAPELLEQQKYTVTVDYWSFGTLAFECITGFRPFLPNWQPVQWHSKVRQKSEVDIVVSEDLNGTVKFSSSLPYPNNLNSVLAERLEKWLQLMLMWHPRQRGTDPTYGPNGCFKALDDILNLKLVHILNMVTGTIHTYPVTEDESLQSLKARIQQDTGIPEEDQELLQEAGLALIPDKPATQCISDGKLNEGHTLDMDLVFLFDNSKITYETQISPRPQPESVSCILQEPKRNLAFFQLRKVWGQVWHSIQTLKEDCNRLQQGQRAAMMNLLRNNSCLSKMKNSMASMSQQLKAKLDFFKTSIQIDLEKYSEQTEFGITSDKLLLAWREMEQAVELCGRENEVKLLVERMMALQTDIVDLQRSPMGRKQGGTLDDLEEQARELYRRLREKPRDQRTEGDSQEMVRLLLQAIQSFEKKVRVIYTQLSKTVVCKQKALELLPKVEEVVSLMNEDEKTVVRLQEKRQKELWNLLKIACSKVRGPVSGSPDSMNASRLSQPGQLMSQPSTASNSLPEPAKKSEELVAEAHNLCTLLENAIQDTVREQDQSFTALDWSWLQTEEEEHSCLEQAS
T1 sequence (O15111 whole entry): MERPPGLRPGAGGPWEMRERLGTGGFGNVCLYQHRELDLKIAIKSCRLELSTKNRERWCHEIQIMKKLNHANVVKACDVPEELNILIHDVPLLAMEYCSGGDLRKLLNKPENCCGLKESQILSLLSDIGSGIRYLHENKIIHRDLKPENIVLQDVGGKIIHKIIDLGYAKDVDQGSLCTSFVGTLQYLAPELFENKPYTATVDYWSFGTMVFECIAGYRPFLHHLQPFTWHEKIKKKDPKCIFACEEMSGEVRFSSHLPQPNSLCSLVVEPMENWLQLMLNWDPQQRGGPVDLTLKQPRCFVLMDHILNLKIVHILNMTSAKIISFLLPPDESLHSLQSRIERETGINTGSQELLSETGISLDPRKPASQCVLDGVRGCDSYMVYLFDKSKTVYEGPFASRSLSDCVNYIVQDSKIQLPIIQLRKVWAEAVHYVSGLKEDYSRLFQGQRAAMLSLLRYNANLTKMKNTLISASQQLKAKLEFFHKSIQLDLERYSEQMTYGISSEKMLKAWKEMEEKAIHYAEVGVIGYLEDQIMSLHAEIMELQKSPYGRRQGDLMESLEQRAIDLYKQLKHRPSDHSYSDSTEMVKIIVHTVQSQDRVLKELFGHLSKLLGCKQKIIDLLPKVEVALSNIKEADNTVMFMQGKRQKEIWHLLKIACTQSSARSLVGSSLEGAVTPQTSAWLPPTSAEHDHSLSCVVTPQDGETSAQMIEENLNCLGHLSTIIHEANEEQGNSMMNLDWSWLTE
T1 sequence (Q9Y6K9 whole entry): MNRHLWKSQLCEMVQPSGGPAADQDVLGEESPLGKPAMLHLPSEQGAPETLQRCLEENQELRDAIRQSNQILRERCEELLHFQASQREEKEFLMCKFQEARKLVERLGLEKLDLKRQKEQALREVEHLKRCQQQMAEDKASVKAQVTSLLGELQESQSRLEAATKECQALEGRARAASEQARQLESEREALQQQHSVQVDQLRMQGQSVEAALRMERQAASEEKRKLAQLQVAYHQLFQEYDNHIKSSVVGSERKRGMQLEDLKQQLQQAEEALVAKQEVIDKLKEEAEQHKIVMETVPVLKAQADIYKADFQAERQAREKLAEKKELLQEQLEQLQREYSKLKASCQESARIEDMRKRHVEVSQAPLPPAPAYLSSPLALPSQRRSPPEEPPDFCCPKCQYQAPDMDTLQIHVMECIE
T2 sequence (Q9Y6K9 whole entry): as above
T2 sequence (O15111 whole entry): as the sequence (O15111 whole entry) above
T2 sequence (O14920 whole entry): as the sequence (O14920 whole entry) above

CCOC(=O)C1=C(C)N=c2s/c(=C/c3ccc(-c4cccc(C(=O)O)c4)o3)c(=O)n2C1c1ccc(Cl)cc1 (stereo not shown) [COM 56, 2-[5-(3-Carboxyphenyl)-furan-2-ylmethylene]-5-(4-chlorophenyl)-7-methyl-3-oxo-2,3-dihydro-5H-thiazolo[3,2-a]pyrimidine-6-carboxylic acid ethyl ester]
potency in the inhibition of IKK activity compared to COM 73 (IKK-complex; cell-free assay): significantly higher | inhibition of IKK activity in cell-free assay (IKK-complex; increasing concentrations on isolated IKK complex): dose-dependently inhibited | disruption of the IKK complex (NEMO binding to IKK-alpha/beta) in vitro (IKKα/β binding to NEMO): dose-dependently disrupted | TNF alpha concentrations in rat serum after LPS [1]: significantly inhibited
